Each structure is given as a SMILES string.

The target in assay [1] is Beta-1 adrenergic receptor (Homo sapiens, UniProt P08588). In words: Agonist activity at human beta1 adrenoreceptor overexpressed in HEK293 cells assessed as cAMP accumulation. It counts as functional, cell-based. (cAMP levels reflect the balance of adenylyl cyclase and phosphodiesterase activity.)
Assay [2] is described as follows: […] agonist activity at beta2 adrenergic receptor isolated from guinea pig tracheal smooth muscle assessed as inhibition of histamine-induced tracheal smooth muscle contraction by measuring maximal relaxant effect relative to control. It counts as functional. The following applies: Cavia porcellus.
Assay [3] has as its target Beta-2 adrenergic receptor (Homo sapiens, UniProt P07550). In words: Agonist activity at human beta2 adrenoreceptor overexpressed in HEK293 cells assessed as cAMP accumulation. Type of assay: functional, cell-based.
Assay [4] can be described thus: […] agonist activity at beta2 adrenergic receptor isolated from guinea pig tracheal smooth muscle assessed as inhibition of histamine-induced tracheal smooth muscle contraction. Type of assay: functional, Cavia porcellus.
For assay [5], the species on record is Cavia porcellus. The assay can be described thus: Myorelaxant effect in guinea pig model of histamine-induced smooth muscle contraction assessed as time of onset of action measured over 12 hrs. Type of assay: functional.
Assay [6] is filed under the species Cavia porcellus. In words: Myorelaxant effect in guinea pig model of histamine-induced smooth muscle contraction assessed as time duration of action measured over 12 hrs. It counts as functional. Conditions: time hrs >12.

Sequence of Beta-1 adrenergic receptor (P08588 whole entry): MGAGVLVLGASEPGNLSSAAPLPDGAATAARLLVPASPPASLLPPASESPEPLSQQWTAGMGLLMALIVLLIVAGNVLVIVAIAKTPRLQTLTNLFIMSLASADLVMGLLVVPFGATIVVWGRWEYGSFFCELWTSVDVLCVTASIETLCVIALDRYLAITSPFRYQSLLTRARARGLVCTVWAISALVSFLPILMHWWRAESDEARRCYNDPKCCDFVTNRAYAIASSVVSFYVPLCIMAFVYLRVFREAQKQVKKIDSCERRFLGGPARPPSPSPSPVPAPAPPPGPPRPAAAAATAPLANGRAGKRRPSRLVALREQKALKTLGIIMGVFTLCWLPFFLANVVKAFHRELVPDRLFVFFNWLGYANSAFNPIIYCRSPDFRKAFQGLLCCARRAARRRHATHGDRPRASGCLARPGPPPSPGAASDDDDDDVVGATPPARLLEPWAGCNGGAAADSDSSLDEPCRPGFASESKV
Sequence of Beta-2 adrenergic receptor (P07550 whole entry): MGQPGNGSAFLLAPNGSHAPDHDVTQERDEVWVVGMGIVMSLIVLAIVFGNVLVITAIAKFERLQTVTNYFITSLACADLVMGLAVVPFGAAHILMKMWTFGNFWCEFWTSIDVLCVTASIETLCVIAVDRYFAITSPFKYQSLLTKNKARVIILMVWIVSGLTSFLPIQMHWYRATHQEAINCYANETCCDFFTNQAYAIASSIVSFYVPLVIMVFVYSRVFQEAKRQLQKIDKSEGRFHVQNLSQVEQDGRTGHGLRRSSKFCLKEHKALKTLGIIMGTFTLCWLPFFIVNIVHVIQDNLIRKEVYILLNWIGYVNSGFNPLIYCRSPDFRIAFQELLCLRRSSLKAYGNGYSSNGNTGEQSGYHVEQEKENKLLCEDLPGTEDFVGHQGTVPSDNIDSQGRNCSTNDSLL

As a reminder, the EC50 is the concentration giving half of the maximal effect. A word on the Emax: it is the size of the effect at its maximum, as opposed to the concentration needed. `COc1cc(CCC(C)NCC(O)c2ccc(O)c3[nH]c(=O)ccc23)cc(OC)c1OC` (stereo unspecified): the EC50 in assay [1] is 35.5 nM. Also, the Emax in assay [2] turned out to be 141%.

Consider `CC(CCc1ccc(F)cc1)NCC(O)c1ccc(O)c2[nH]c(=O)ccc12` (stereo unspecified), for which, in assay [3], the EC50 is 0.0282 nM. The Emax in assay [2] is 100%.

In the case of `COc1ccc(CCC(C)NCC(O)c2ccc(O)c3[nH]c(=O)ccc23)cc1.Cl` (stereo unspecified), the EC50 was 44.7 nM in assay [1] and 0.0182 nM in assay [3]. Besides, the pD2 in assay [4] is listed as 7.48. Moreover, the Emax in assay [2] is 104%.

Regarding `COc1ccccc1CCC(C)NCC(O)c1ccc(O)c2[nH]c(=O)ccc12` (stereo unspecified), the half-maximal effective concentration (EC50) in assay [3] is 0.0148 nM.

In the case of `Cc1ccccc1CCCNCC(O)c1ccc(O)c2[nH]c(=O)ccc12.Cl` (stereo unspecified), the values for the EC50 in assay [1] and in assay [3] were 17 nM and 0.0575 nM, respectively. In addition, the pD2 in assay [4] is 7.72. Besides, the Emax in assay [2] worked out at 125%.

As for `OCc1cc(C(O)CNCCCCCCOCCCCc2ccccc2)ccc1O` (stereo unspecified) [SALMETEROL], in the assay filed under Cavia porcellus [5], the Time stood at 4.23 min. Further, the Emax in assay [2] was 172%.

As to `Cc1ccc(CCC(C)NCC(O)c2ccc(O)c3[nH]c(=O)ccc23)cc1.Cl` (stereo unspecified), the figures for the EC50 in assay [1] and in assay [3] were 10.5 nM and 0.038 nM, respectively. Further, the pD2 in assay [4] is 7.58. In addition, the Emax in assay [2] was 95.9%.

For the compound `O=c1ccc2c(C(O)CNCCCc3cccc(F)c3)ccc(O)c2[nH]1` (stereo unspecified), in assay [3], the 50% effective concentration (EC50) is 0.0245 nM.

As to `CC(CCc1ccc(O)cc1)NCC(O)c1ccc(O)c2[nH]c(=O)ccc12` (stereo unspecified), the EC50 in assay [3] is 0.0107 nM. For the same compound, in assay [2], the Emax was found to be 71.3%.

For `CC(C)(CCc1cccc(Cl)c1)NCC(O)c1ccc(O)c2[nH]c(=O)ccc12.Cl` (stereo unspecified), the Time in the assay filed under Cavia porcellus [5] was 3.43 min; in the assay filed under Cavia porcellus [6], greater than 12 h.

Take `COc1ccc(CC(C)(C)NC[C@H](O)c2cc(O)cc3c2OCC(=O)N3)cc1` [OLODATEROL]: in the assay filed under Cavia porcellus [5], the Time is 2.31 min. The 50% effective concentration (EC50) in assay [1] was 123 nM. Further, in assay [2], the Emax turned out to be 170%.

On to `CC(C)(CCc1cccc(O)c1)NCC(O)c1ccc(O)c2[nH]c(=O)ccc12.Cl` (stereo unspecified), for which the EC50 in assay [1] was 2.4 nM; in assay [3] it was 0.0182 nM. In assay [4], the pD2 is 6.37. The Emax in assay [2] turned out to be 103%.

Consider `O=c1ccc2c(C(O)CNCCCc3cccc(C(F)(F)F)c3)ccc(O)c2[nH]1` (stereo unspecified), for which the EC50 in assay [3] is 0.0282 nM.

Turning to `COc1ccccc1CCC(C)(C)NCC(O)c1ccc(O)c2[nH]c(=O)ccc12` (stereo unspecified), the 50% effective concentration (EC50) in assay [3] is 0.0224 nM. The Emax in assay [2] came to 141%.

Regarding `COc1cc(CCCNCC(O)c2ccc(O)c3[nH]c(=O)ccc23)cc(OC)c1OC.Cl` (stereo unspecified), the EC50 is 10000 nM in assay [1] and 0.0832 nM in assay [3]. In addition, the pD2 in assay [4] stood at 7.74. Moreover, in assay [2], the Emax is 111%.

Consider `CC(CCc1ccccc1Cl)NCC(O)c1ccc(O)c2[nH]c(=O)ccc12.Cl` (stereo unspecified), for which the results for the EC50 in assay [1] and in assay [3] were 4.57 nM and 0.0339 nM, respectively. The pD2 in assay [4] is reported as 7.87. The Emax in assay [2] amounted to 95.3%.

On to `Cc1ccccc1CCC(C)(C)NCC(O)c1ccc(O)c2[nH]c(=O)ccc12` (stereo unspecified), for which the EC50 in assay [3] was 0.0178 nM.

In the case of `CC(CCc1cccc(F)c1)NCC(O)c1ccc(O)c2[nH]c(=O)ccc12` (stereo unspecified), the EC50 in assay [1] is 3.09 nM. Also, the Emax in assay [2] stood at 163%.

In the case of `Cc1cccc(CCC(C)NCC(O)c2ccc(O)c3[nH]c(=O)ccc23)c1` (stereo unspecified), the EC50 in assay [1] was 4.07 nM.

For the compound `CC(C)NCC(O)c1ccc(O)c(O)c1` (stereo unspecified) [ISOPROTERENOL], the Time in the assay filed under Cavia porcellus [5] turned out to be 3.1 min. In assay [2], the Emax came to 181%.

Consider `CC(CCc1ccc(Cl)cc1)NCC(O)c1ccc(O)c2[nH]c(=O)ccc12` (stereo unspecified), for which the EC50 in assay [1] was 6.31 nM.

In the case of `COc1cccc(CCC(C)NCC(O)c2ccc(O)c3[nH]c(=O)ccc23)c1.Cl` (stereo unspecified), the Time in the assay filed under Cavia porcellus [5] was 4.97 min; in the assay filed under Cavia porcellus [6], greater than 12 h. Moreover, the figures for the EC50 in assay [1] and in assay [3] were 2.57 nM and 0.0214 nM, respectively. Further, the pD2 in assay [4] was 7.33. For the same compound, the Emax in assay [2] was 196%.

On to `CC(CCc1cccc(Cl)c1)NCC(O)c1ccc(O)c2[nH]c(=O)ccc12` (stereo unspecified), for which the concentration for a half-maximal effect (EC50) in assay [3] is 0.0724 nM. The Emax in assay [2] was found to be 105%.

Consider `COc1ccc(CCC(C)(C)NCC(O)c2ccc(O)c3[nH]c(=O)ccc23)cc1.Cl` (stereo unspecified), for which the EC50 in assay [1] was 7.76 nM; in assay [3], 0.0309 nM. The pD2 in assay [4] is given as 7.86. The Emax in assay [2] came out at 161%.

As to `COc1ccccc1CC[C@@H](C)NC[C@H](O)c1ccc(O)c2[nH]c(=O)ccc12`, the EC50 in assay [3] was 0.0288 nM.

As to `O=c1ccc2c(C(O)CNCCCc3cc(F)cc(F)c3)ccc(O)c2[nH]1` (stereo unspecified), in assay [3], the EC50 was 0.0214 nM.

`Cc1ccc(CCC(C)(C)NCC(O)c2ccc(O)c3[nH]c(=O)ccc23)cc1` (stereo unspecified): the EC50 in assay [1] is 24.5 nM.

On to `CC(CCc1cccc(O)c1)NCC(O)c1ccc(O)c2[nH]c(=O)ccc12` (stereo unspecified), for which the EC50 in assay [3] was 0.0135 nM.

`CC(C)(CCc1ccccc1Cl)NCC(O)c1ccc(O)c2[nH]c(=O)ccc12` (stereo unspecified): in assay [1], the EC50 is 1.74 nM. Besides, the Emax in assay [2] came out at 124%.

As to `COc1cccc(CCC(C)(C)NCC(O)c2ccc(O)c3[nH]c(=O)ccc23)c1` (stereo unspecified), the EC50 in assay [1] was 7.59 nM. Moreover, in assay [2], the maximal effect (Emax) was 112%.

Turning to `Cc1cccc(CCC(C)(C)NCC(O)c2ccc(O)c3[nH]c(=O)ccc23)c1` (stereo unspecified), the EC50 in assay [1] is 2.63 nM. Also, in assay [2], the Emax amounted to 152%.

In the case of `Cl.O=c1ccc2c(C(O)CNCCCc3ccc(F)cc3)ccc(O)c2[nH]1` (stereo unspecified), the values for the EC50 in assay [1] and in assay [3] were 16.2 nM and 0.0468 nM, respectively. Further, in assay [4], the pD2 amounted to 7.39. In assay [2], the maximal response (Emax) is 153%.

On to `Cc1ccccc1CCC(C)NCC(O)c1ccc(O)c2[nH]c(=O)ccc12` (stereo unspecified), for which the concentration for a half-maximal effect (EC50) in assay [1] is 6.76 nM.

On to `Cc1ccc(CCCNCC(O)c2ccc(O)c3[nH]c(=O)ccc23)cc1` (stereo unspecified), for which, in assay [3], the EC50 is 0.0955 nM.

As for `Cc1cccc(CCCNCC(O)c2ccc(O)c3[nH]c(=O)ccc23)c1.Cl` (stereo unspecified), the results for the concentration for a half-maximal effect (EC50) in assay [1] and in assay [3] were 14.5 nM and 0.038 nM, respectively. Moreover, the pD2 in assay [4] came to 7.66. The Emax in assay [2] turned out to be 144%.

These data come from ChEMBL document CHEMBL4842339, “8-Hydroxyquinolin-2(1H)-one analogues as potential β2-agonists: Design, synthesis and activity study” (Eur J Med Chem, 2021).
